# No end group written: not given here.
# How the values were obtained:
# [1] = system: E6AP mRNA in HCT116 cells; assay: siRNA AD-8724 delivery into HCT116 cells, inhibition of E6AP mRNA expression by bDNA assay; assay type: cell-based, human
# Description: All further experiments were carried out using HCT116 cells and inhibition of E6AP expression as readout.
# HCT116-cells were obtained from the American Type Culture Collection (ATCC# CCL-247). They were cultured in McCoy's 5A medium (Biochrom AG, Berlin, Germany, Cat.# F1015) containing 10% fetal calf serum (FCS; Biochrom AG, Berlin, Germany, Cat.# S0115) and 2 mM L-Glutamin (Biochrom AG, Berlin, Germany, Cat.#: K0283) (standard growth medium). For incubation with peptide/siRNA, complexes, the medium was replaced by serum-free McCoy's 5A medium containing 2 mM L-Glutamin (serum free medium). After incubation with complexes for 4 h, McCoy's 5A medium containing 30% fetal calf serum and 2 mM L-Glutamin (triple FCS medium) was added to restore an overall 10% FCS in the medium.
# The E6AP-specific siRNA denoted AD-8724 herein was used, having the following sequences: antisense strand: 5′-ucacauuccacguuaggugTsT-3′ (SEQ ID NO:51), sense strand 5′-caccuaacguggaaugugaTsT-3′; (SEQ ID NO:52; lower case letters: ribonucleotides; s: phosphorothioate backbone linkage). As a negative control, an siRNA specific for eGFP, denoted AD-5107 herein, was used, having the following sequences: antisense strand: 5′-aagucgugcugcuucauguggOMesuOMesc-3′ (SEQ ID NO:19), sense strand 5′-[…]-3′ (SEQ ID NO:18; lower case letters: ribonucleotides; subscript OMe: 2′-O-methyl-ribonucleotide; s: phosphorothioate backbone linkage). In addition to the non-specific control siRNA AD-5107, mock transfected cells treated with standard growth medium only were used as negative controls. As a positive control, AD-8724 was transfected into the cells using Lipofectamine2000™ (Invitrogen, Karlsruhe, Germany, Cat. No. 11668-019). As a further control, AD-5107 was transfected into cells using Lipofectamine2000™. All assays were performed in quadruplicates.
# SiRNA/peptide complexes were prepared by mixing a solution of the siRNA in deionized water with a solution of the peptide in deionized water at the appropriate concentrations to give the desired ratio of siRNA/peptide at the desired concentration of the complex. The mixture was incubated at room temperature for 30 min and kept at 4° C. until use, and used within 24 h.
# For transfections with siRNA/peptide complexes, 1.5×10^5 HCT116-cells per well in 150 μl standard growth medium were seeded into polystyrene 96 well plates and grown for 24 h at 37° C. in an atmosphere containing 5% CO2. The medium was removed by aspiration, and 90 μl serum-free medium and 10 μl of siRNA/peptide complex solution were added. Cells were incubated for 4 h at 37° C./5% CO2, 50 μl triple FCS medium were added, and the cells incubated for another 20 h under identical conditions. Subsequently, E6AP mRNA content was determined as described below.
# For Lipofectamine2000™ transfections, 0.5 μl Lipofectamine2000™ were mixed with 12 μl OptiMem™ (Invitrogen, Karlsruhe, Germany, Cat. No. 11058-021) and incubated for 15 min. 1 μl of a 5 μM solution of the respective siRNA in PBS (Biochrom AG, Berlin, Germany, Cat-No: L182-05) were added to 11.5 μl OptiMeM™, mixed with the Lipofectamine2000™/OptiMem™ solution, and incubated for further 15 min. 1.5×10^5 HCT116-cells per well in 150 μl standard growth medium were grown for 24 h as described above, the growth medium removed from the cells by aspiration, and 75 μl fresh standard growth medium and the 25 μl of the siRNA/Lipofectamine2000™ mix were added to the well, to give a final siRNA concentration of 50 nM. The cells were incubated for 24 h at 37° C./5% CO2 and E6AP mRNA concentration determined.
# The QuantiGene™ bDNA-kit from Panomics, Inc., Fremont, USA, was used according to manufacturer's instructions. Briefly, cells were lysed by adding 50 μl of Lysis Mixture (from QuantiGene bDNA-kit) to each well and incubation at 53° C. for 1 h. […]
# [2] = system: eGFP-mRNA; assay: Influence of peptide/siRNA ratio on siRNA activity in HCT116 cells; assay type: cell-based; conditions: 250 nM siRNA
# Description: The optimal ratio of (peptide):(anionic substance) for complex formation, was determined in section 3 above to lie in the range of 8:1 to 13:1 by titrating a fixed concentration of the anionic substance with increasing amounts of the peptide, and monitoring complex formation by electrophoresis of the mixture. To further validate and possibly narrow down the optimum ratio of peptide/anionic substance, an assay with a functional readout was performed. HCT116 cells were incubated with siRNA complexes as described above at concentrations such that the amount of siRNA in the incubation mixture corresponds to a 250 nM concentration of the siRNA, and the peptide/siRNA ratio was 8:1, 10:1, 12:1, or 14:1.
# [3] = system: cell viability; assay: CytoTox ONE cell viability assay; assay type: cell-based; conditions: 2.5 μM peptide
# Description: Delivery of siRNAs was tested in 7 different cell lines we obtained from the American Type Culture Collection, ATCC, via LCG Promochem GmbH, Wesel, Germany (PC12, ATTC# CRL-1721; HCT116, ATCC# CCL-247; C33A, ATCC# HTB-31; H441, ATCC# HTB-174; NMuLi, ATCC# CRL-1638; HepG2, ATCC# HB-8065; HeLa S3, ATCC# CCL2.2) and in the cell line KB-BCL2-GFP, as described in co-pending U.S. Ser. No. 10/941,663. Target mRNA quantification was performed using the QuantiGene™ bDNA-kit from Panomics, Inc., Fremont, USA, according to the manufacturers instructions, and essentially as described below for H441 cells. Genes constitutively expressed in the various cell lines were chosen as targets and results normalized to GAPDH expression. siRNA concentration was 250 nM, the concentration of the peptide was chosen as given by the molar ratio peptide/siRNA shown in Table 1. Cytotoxicity of peptides was evaluated employing the CytoTox-ONE™ assay (Promega GmbH, Mannheim, Germany).
# Potential cytotoxic effects as mediator of inhibition were ruled out by determining cell viability in the presence of 2.5 μM of ppTG20, AP-0, AP-1, AP-27, AP-30, AP32 and AP-34 using the CytoTox ONE™ assay (Promega GmbH, Mannheim, Germany).
# [4] = siRNA AD-8724 250 nM, molar peptide/siRNA ratio 12.5:1
sequence,measurement,setting,value
RLFRALRRLLRRLWRLLRRA [AP-8],remaining E6AP mRNA (in % of mock),[1]; [4],170 ± 44%
HLFRALRRLLRHLWRLLRRA [AP-13],remaining E6AP mRNA (in % of mock),[1]; [4],59 ± 7%
HLFRALLRLLRSLWRLLHRA [AP-9],remaining E6AP mRNA (in % of mock),[1]; [4],53 ± 17%
same,Remaining eGFP-mRNA in % of mock-transfected controls,[2]; peptide/siRNA ratio 8:1,38 ± 6%
same,Remaining eGFP-mRNA in % of mock-transfected controls,[2]; peptide/siRNA ratio 10:1,31 ± 3%
same,Remaining eGFP-mRNA in % of mock-transfected controls,[2]; peptide/siRNA ratio 12:1,22 ± 1%
same,Remaining eGFP-mRNA in % of mock-transfected controls,[2]; peptide/siRNA ratio 14:1,36 ± 7%
GLFRALLRLLRSLWRLLLRAHHHHH [AP-0],cell viability,[3],None of these peptides led to a significant alteration of cell viability
GAFRAAARLLRSLWRALLRA [AP-24],remaining E6AP mRNA (in % of mock),[1]; [4],91 ± 16%
RLFRALLRLLRRLWRLLRRA [AP-7],remaining E6AP mRNA (in % of mock),[1]; [4],134 ± 19%
GLYRALLRLLRSLWRLLLRA [AP-19],remaining E6AP mRNA (in % of mock),[1]; [4],27 ± 9%
GLFRALLRLLRSLWRLLSRA [AP-16],remaining E6AP mRNA (in % of mock),[1]; [4],43 ± 13%
GLYRALLRLLRSLWRLLSRA [AP-20],remaining E6AP mRNA (in % of mock),[1]; [4],45 ± 6%
HLFRALLRLLRHLWRLLLRAHHHHH [AP-29],remaining E6AP mRNA (in % of mock),"[1]; AD-8724, siRNA/peptide conc. 25 nM/250 nM",58 ± 8%
same,remaining E6AP mRNA (in % of mock),"[1]; AD-8724, siRNA/peptide conc. 250 nM/2.5 μM",16 ± 2%
same,remaining E6AP mRNA (in % of mock),"[1]; AD-8724, siRNA/peptide conc. 1 μM/10 μM",11 ± 1%
RLFRALLRLLRSLWRLLLRAHHHHHHHHHH [AP-34],cell viability,[3],None of these peptides led to a significant alteration of cell viability
GLFRALLRLLRRLWRLLLRA [AP-3],remaining E6AP mRNA (in % of mock),[1]; [4],43 ± 7%
same,Remaining eGFP-mRNA in % of mock-transfected controls,[2]; peptide/siRNA ratio 8:1,39 ± 10%
same,Remaining eGFP-mRNA in % of mock-transfected controls,[2]; peptide/siRNA ratio 10:1,32 ± 4%
same,Remaining eGFP-mRNA in % of mock-transfected controls,[2]; peptide/siRNA ratio 12:1,40 ± 5%
same,Remaining eGFP-mRNA in % of mock-transfected controls,[2]; peptide/siRNA ratio 14:1,40 ± 8%
HHHHHRLFRALLRLLRSLWRLLLRAHHHHH [AP-32],cell viability,[3],None of these peptides led to a significant alteration of cell viability
GAFRAALRLLRSLWRLLLRA [AP-21],remaining E6AP mRNA (in % of mock),[1]; [4],53 ± 32%
GLFRALRRLLRSLWRLLRRA [AP-5],remaining E6AP mRNA (in % of mock),[1]; [4],108 ± 47%
GLFRALARALRSLWRALARA [AP-25],remaining E6AP mRNA (in % of mock),[1]; [4],83 ± 5%

# Reference: patent US7906484B2, “Complex for transferring an anionic substance into a cell” (Alnylam Pharmaceuticals, Inc., priority 2006, dated 2011)
